What was measured:
myosin light chain (MLC) = assay: Western analysis of MLC phosphorylation (Ser19) in thrombin treated hBMVECs; format: cell-based, human; details: thrombin 0.1 unit/ml 5 min; L-NIO or FeTPPS 10 μM; GSNO or SIN-1 various concentrations
Procedure: (§1) Cell culture: Primary human brain microvascular endothelial cells (hBMVECs) were purchased from Angio-Proteomie (Cat #: cAP-0002, Atlanta, Ga.). The cells were cultured in cell culture flasks or plates precoated with Quick Coating Solution (Angio-Proteomie; Cat #: cAP-01) and maintained in Endothelial Growth Medium (Angio-Proteomie; Cat #: cAP-02) at 37° C. under 5% CO2/95% air. When the cells were almost confluent, the medium was replaced with endothelial basal medium (Angio-Proteomie; Cat #: cAP-03) containing 0.5% fetal bovine serum (FBS; Life Technologies, Grand Island, N.Y.) about 8-12 hours before the experiment. No institutional approval was required for this study. The study was not pre-registered.
Western immunoblot analysis was performed by standard method using 50 μg of cell lysates. Following the SDS-PAGE electrophoresis, proteins were transferred from the gel onto the Polyvinylidene fluoride membrane (GE Healthcare Life Sciences, Marlborough, Mass.). Membranes were blocked with non-fat dry milk (Santa Cruz Biotechnology) or I-Block™ (ThermoFisher Scientific, Waltham, Mass.) for detection of phospho-proteins and incubated with primary antibodies, such as MBP (Santa Cruz Biotech Cat #: sc13914; RRID: AB_648798), phospho-(Ser^19) MLC (Abeam, Cat #: ab2480; RRID: AB_303094), MLC (Abeam, Cat #: ab79935; RRID:AB_1952220), P-actin (Santa Cruz Biotechnology, Cat #: sc-47778; RRID:AB_2714189), phospho-eNOS (Ser^1177) (Cell Signaling, Cat #: 9571; RRID: AB_329837, Danvers, Mass.), eNOS (Cell Signaling, Cat #: 32027), RhoA (Santa Cruz Biotechnology; Cat #: sc418; RRID: AB_628218) or 3-nitrotyrosine (Abeam, Cat #: ab61392; RRID: AB_942087). Following washing, the membranes were incubated with horseradish peroxidase conjugated secondary antibody (Jackson Immunoresearch Lab, West Grove, Pa.), washed and then incubated with ECL reagent (Amersham Life Science, Pittsbrugh, Pa.), and exposed to Amersham Hyperfilm ECL film

myelin = assay: Spinal cord demyelination (MBP staining and Western) in EAE mice; format: in vivo, C57BL/6J mice; details: GSNO 1 mg/kg/day or FeTPPS 30 mg/kg/day i.p.
Procedure: Western immunoblot analysis was performed by standard method using 50 μg of cell lysates. Following the SDS-PAGE electrophoresis, proteins were transferred from the gel onto the Polyvinylidene fluoride membrane (GE Healthcare Life Sciences, Marlborough, Mass.). […]
EAE was induced as described previously (Nath et al., 2009). […] The group size was determined by power analysis based on our previous data (Nadi et al., 2009). […] Clinical signs of EAE were scored in animal facility in a blinded fashion to experimenter between 2 and 4 pm daily by examiners blinded to experimental treatments using the following scale: 0=no clinical signs of disease; 1=limp tail or waddling gait with tail tonicity; 2=waddling gait with limp tail (ataxia); 2.5=ataxia with partial limb paralysis; 3=full paralysis of one limb; 3.5=full paralysis of one limb with partial paralysis of second limb; 4=full paralysis of two limbs; 4.5=moribund stage; 5=death. […]
Animals were anesthetized and fixed with cardiac perfusion of 4% paraformaldehyde (Nath et al., 2004). […] To assess the status of myelin, the sections were stained with antibody specific to MBP and detected with secondary antibody conjugated with immunofluorescent analysis. […]

mononuclear cells = assay: H&E staining, peripheral mononuclear cell infiltration in EAE mice; format: in vivo, C57BL/6J mice; details: GSNO 1 mg/kg/day or FeTPPS 30 mg/kg/day i.p.
Procedure: (§2) EAE was induced as described previously (Nath et al., 2009). Animal procedures were approved by the institutional animal care and use committee of MUSC (AR #1644). Briefly, female C57BL/6J mice of 8-12 weeks of age weighing 18-22 g (The Jackson Laboratory, Bar Harbor, Me., USA) were randomly divided into four groups: 1) EAE animals treated with vehicle (EAE; n=8), 2) EAE with GSNO (1 mg/kg body weight per day; i.p.) treatment (EAE+GSNO; n=12), 3) EAE with FeTPPS (30 mg/kg body weight per day; i.p.) treatment (EAE+FeTPPS; n=8), 4) control with vehicle (Ctrl; n=8). The group size was determined by power analysis based on our previous data (Nadi et al., 2009). Then, the mice were immunized subcutaneously in the flank regions with MOG35-55 peptide (MOG; 200 ug; Peptide International) emulsified (1:1) in 100 ul complete Freund's adjuvant (CFA) CHI day 0 and day 7. […] Clinical signs of EAE were scored in animal facility in a blinded fashion to experimenter between 2 and 4 pm daily by examiners blinded to experimental treatments using the following scale: 0=no clinical signs of disease; 1=limp tail or waddling gait with tail tonicity; 2=waddling gait with limp tail (ataxia); 2.5=ataxia with partial limb paralysis; 3=full paralysis of one limb; 3.5=full paralysis of one limb with partial paralysis of second limb; 4=full paralysis of two limbs; 4.5=moribund stage; 5=death. […]

RhoA = RhoA activity assay in thrombin treated hBMVECs; format: cell-based, human; details: thrombin 0.1 unit/ml 5 min; L-NIO or FeTPPS 10 μM pretreated 30 min; GSNO or SIN-1 various concentrations pretreated 2 hr
Procedure: as §1
RhoA activity in hBMVECs was analyzed by RhoA Activation Assay Kit (Abeam Cat #: ab211164, Cambridge, Mass.). Briefly, following drug treatments, the cells were lysed with 1× Assay buffer provided in the kit. Lysates were centrifuged (14,000×g for 10 sec), and supernatants were incubated with agarose beads coupled to GST-Rhotekin-Rho binding domain (RBD) for 2 h at 4° C. Beads were then washed with 1× Assay buffer and GTP-bound RhoA was eluted with 2×SDS-PAGE sample buffer. Amounts of active (GTP-bound) RhoA were determined by Western blot analysis using antibody specific to RhoA (Abeam).

BBB leakage = assay: Evan's blue extravasation assay (BBB leakage) in EAE mice; format: in vivo, C57BL/6J mice; details: GSNO 1 mg/kg/day or FeTPPS 30 mg/kg/day i.p.
Procedure: as §2

Row | Structure (SMILES) | thrombin-induced MLC phosphorylation (myosin light chain (MLC)) | protection of myelin in the spinal cord (myelin) | extravasation of peripheral mononuclear cells into the CNS (mononuclear cells) | thrombin-induced RhoA activation (RhoA) | extravasation of Evan's blue dye into the CNS (BBB leakage)
1 | Cl.O=S(=O)([O-])c1ccc(-c2c3nc(c(-c4ccc(S(=O)(=O)O)cc4)c4ccc([nH]4)c(-c4ccc(S(=O)(=O)O)cc4)c4nc(c(-c5ccc(S(=O)(=O)O)cc5)c5ccc2[nH]5)C=C4)C=C3)cc1.[Fe] [FeTPPS, 5,10,15,20-Tetrakis(4-sulfonatophenyl)porphyrinato Iron (III), Cl, reference compound] | inhibited | protected myelin | significantly decreased | decreased | significantly decreased
2 | N[C@@H](CCC(=O)N[C@@H](CSN=O)C(=O)NCC(=O)O)C(=O)O [GSNO, S-nitrosoglutathione] | attenuated | protected myelin | significantly decreased | inhibited | significantly decreased
